Series [1] has as its system conscious male Sprague-Dawley rats. Briefly: Pulmonary function evaluation in conscious male Sprague-Dawley rats (GLP). It is filed as in vivo, rat. The conditions noted are these: 220, 440 and 660 mg/kg oral. As for the experimental part: The potential effects of orally administered SRP-001 on respiratory rate, tidal volume, and minute volume in conscious male Sprague-Dawley rats was studied in 24 male rats. The rodents were trained for two days in the head-out plethysmograph chamber for 15-17 min each prior to the experiment. On the day of dosing, each animal was weighed and placed in the plethysmograph chamber, and baseline respiratory parameters were obtained for 5 min following an approximately 5-min stabilization period. The rats were then removed from the chamber and dosed by oral gavage. Three groups of six male Sprague-Dawley rats each were orally administered SRP-001 at a single dose of 220, 440, or 660 mg/kg at a dose volume of 10 mL/kg. […] Following dosing, each animal was returned to its designated plethysmograph chamber, and the respiratory parameters were recorded at 30 min (±5 min), 2, 4, and 6 h (±15 min). Animals were allowed to stabilize in the plethysmograph chamber for at least 5 min before each reading was taken. The following parameters were acquired, recorded, and analyzed using Ponemah Physiology Platform (Ponemah v.5.20 Pulmonary); Respiratory rate, Tidal Volume, and Minute Volume, Values for the test article treated group were compared to the vehicle control values using a two-way repeated measures ANOVA followed by a Bonferroni Multiple Comparison Test (SigmaStat, v. 4.0). […]

The test system of series [2] is Beagle dogs. The experiment in a line: 7-day repeat-dose oral toxicity study in Beagle dogs, Phase II (non-GLP). In kind it is in vivo, dog. As for the experimental part:
7) A Dose-Range-Finding and 7-day Repeat-Dose Oral Toxicity Study of SRP-001 in Beagle dogs (Non-GLP) In Phase II of this study, 0, 30, 100, or 300 mg/kg/d of SRP-001 was administered once daily for seven consecutive days to 1 Beagle dog/sex/dose (Calvert Labs/Altasciences, Scott Township, PA USA). Mortality/morbidity was observed twice daily and once prior to scheduled sacrifice. Clinical observations were evaluated prior to each dose administration and at approximately 1-3 h post-dose and once prior to scheduled sacrifice on day 8. Body weights were recorded on days 1 and 7, and a fasted body weight was recorded prior to scheduled sacrifice on day 8. Food consumption was recorded daily. Blood for evaluation of hematology, coagulation, and clinical chemistry parameters and urine for urinalysis was collected from all animals prior to treatment initiation and from all Phase II animals prior to scheduled sacrifice on day 8. Blood for toxicokinetic evaluation was collected at selected time points on days 1 and 7. Selected tissues were harvested and weighed at necropsy. No microscopic evaluations were performed. […] The clinical observations corroborated with findings of red discoloration in the duodenum of the control group female, the jejunum of the low-dose male, and the colon of both high-dose dogs.

The test system of series [3] is Beagle dogs. Briefly: Dose-range-finding oral toxicity study in Beagle dogs, Phase I (non-GLP). In kind it is in vivo, dog. As to the method:
3) A Dose-Range-Finding and 7-day Repeat-Dose Oral Toxicity Study of SRP-001 in Beagle dogs (Non-GLP) Two beagle dogs (1/sex) were administered 30, 100, 250, or 500 mg/kg SRP-001. […] After a period of at least 2 d (minimum of 44 h) following the previous dose of test article, additional dose levels of SRP-001, as indicated above, were administered by oral gavage to the same 2 dogs (1 male and 1 female). Each dose was based on the dog's most recent body weight. Mortality/morbidity was observed twice daily and once prior to scheduled sacrifice. Body weights were recorded prior to randomization/selection, prior to each dose administration, and prior to scheduled sacrifice. At scheduled sacrifice, a gross necropsy was performed, and the tissues were appropriately discarded. […] Doses for Phase II of the study were set based on Phase I results. The actual dose amounts selected for Phase II of the study were 0, 30, 100, or 300 mg/kg/d of SRP-001. These doses were administered once daily for seven consecutive days to 1 Beagle dog/sex/dose.

In series [4] the test system is Chinese Hamster Ovary Cells. The experiment in a line: In vitro mammalian chromosomal aberration assay. It is filed as cell-based. The conditions noted are these: for doses with cytotoxicity: non-activated 20-h exposure. As to the method: To further evaluate the potential genotoxicity of SRP-001 and determine the validity of the in vitro findings, a second in vivo assay, a GLP-compliant Comet assay, was conducted in accordance with ICH S2(R1) Guidance on Genotoxicity Testing and Data Interpretation for Pharmaceuticals Intended for Human Use. […] SRP-001 was tested to evaluate its mutagenic potential by measuring its ability to induce reverse mutations at selected loci of several strains of Salmonella typhimurium (S. typhimurium) and at the tryptophan locus of Escherichia coli (E. coli) strain WP2 uvrA in the presence and absence of an exogenous metabolic activation system (Bioreliance, Rockville, MD USA). Dimethyl sulfoxide (10% DMSO) was used as the vehicle. The dose levels tested in the preliminary toxicity assay were 6.67, 10.0, 33.3, 66.7, 100, 333, 667, 1000, 3333, and 5000 μg per plate. No precipitate was observed. […] The dose levels tested in the mutagenicity assay were 100, 333, 667, 1000, 3333, and 5000 μg per plate. […] In the preliminary toxicity assay, the doses tested ranged from 0.0405 to 405 μg/mL (1 mM), which was the limit dose for this assay (Bioreliance, Rockville, MD USA).
The doses selected for evaluation of chromosome aberrations were 150, 300, and 405 μg/mL for the non-activated and S9-activated 4-h exposure groups; and 10, 40, and 80 μg/mL for the non-activated 20-h exposure group. […] The induction of structural aberrations was outside the 95% control limit of the historical negative control data of 0.00% to 2.79%. […] However, the induction of structural aberrations was within the 95% control limit of the historical negative control data of 0.00% to 4.28%. […] The induction of structural aberrations was outside the 95% control limit of the historical negative control data of 0.00% to 2.68%.

“Also recorded” adds a separate entry of the source.

The results in this text go back to patent publication US20250339391A1, “METHODS FOR EFFECTIVE MANAGEMENT OF PAIN” (South Rampart Pharma, Inc., priority 2024, published 2025).

Consider `CCN(CC)C(=O)c1ccccc1S(=O)(=O)NCC(=O)Nc1ccc(O)cc1` [SRP-001, N,N-diethyl-2-[[2-(4-hydroxyanilino)-2-oxo-ethyl]sulfamoyl]benzamide], for which the “effects on respiratory rate, tidal volume, minute volume” value in series [1] was “no effects on pulmonary function or cardio-telemetry; also recorded: did not induce any significant effects”. Further, the clinical signs result is “loose or soft feces and emesis” in the series on Beagle dogs [2] (30, 100, 300 mg/kg/d); “Loose feces and emesis were observed following most doses” with Beagle dogs [3] (30, 100, 250 or 500 mg/kg oral gavage). Further, the tolerated dose in the series on Beagle dogs [2] (both, Beagle, dog, in vivo, 7 d) is 300 mg/kg. In addition, in the series with Beagle dogs [2] (dog, in vivo), the “AUC and Cmax levels” value is recorded as “increased in a dose-dependent manner, with day 1 levels higher than those from day 7”. The “body weight and food consumption” value in the series on Beagle dogs [3] (30, 100, 250 or 500 mg/kg) is listed as “No test article-related effects”. For the same compound, the “induction of numerical chromosomal aberrations, conclusion” value in series [4] is listed as “negative for the induction of numerical chromosomal aberrations”. The same compound registered a structural aberrations in series [4] (Chinese hamster, 20 h, 80 μg/mL) of 3.7%. This compound came in with a dose with cytotoxicity in series [4] (chromosome aberration assay, non-activated 4-h exposure) of 405 µg/mL. Further, the doses with cytotoxicity in series [4] (chromosome aberration assay) is no less than 70 µg/mL; in series [4] (preliminary toxicity assay) it was no less than 122 µg/mL.
